Reference: patent US20080269121A1, “Methods and Compositions Involving A1c Subunit of L-Type Calcium Channels in Smooth Muscle Cells” (The Board of Regents of the University of Texas System, priority 2005, published 2008)
“Also recorded” adds a separate entry of the source.

Experiments:
[1] = system: α1C1b promoter; test: α1C1b promoter luciferase reporter activity in HCCSMC; format: cell-based, human
Experimental: Transient cell transfections and luciferase activity. FuGENE 6 (Roche, Mannheim, Germany) is used to transfect luciferase-expressing pGL2 constructs in HCCSMC. The cells in passage 4 are seeded into 12-well plates (Costar, Acton, Mass.) and grown to 70% to 80% confluency. Transfections are carried out by incubation of cells in each well with 1.5 μl of FuGENE 6, 0.5 μg of pGL2 construct, and 0.125 μg of pSEAP2 Control Vector (BD Biosciences Clontech, Palo Alto, Calif.) for 24 h as per manufacturer's instructions. The pSEAP2 Control Vector is co-transfected for normalization of data. The transfected cells were treated with stimulus or medium control and harvested after 24 hours. Twenty μl of the supernatant of the cell lysates are taken for the measurement of luciferase activity by a luminometer (Promega, Madison, Wis.). The SEAP activity is measured with a Clontech SEAP detection kit by following the manufacturer's instructions.
Promoter constructs, 5′-deletions, and site-directed mutagenesis. The promoter constructs of hα1c1b are prepared by PCR amplification of human genomic DNA (Roche, Indianapolis, Ind.) and digested partially with Hind III (Promega, Madison, Wis.) using the FailSafe PCR kit (Epicentre, Madison, Wis.). The PCR product is subcloned into pDrive Cloning Vector with the PCR Cloning^plus kit (Qiagen, Valencia, Calif.) and SURE 2 supercompetent cells (Stratagene, La Jolla, Calif.) and subsequently transferred to the luciferase expression plasmid pGL2-Basic Vector (Promega, Madison, Wis.). The deletion constructs are made using the full length promoter construct as a template in PCR reactions. The same methods and kits are used to subclone the sequenced PCR products into the pDrive and pGL2 vector. The site-directed mutagenesis is carried out using QuikChange® II XL Site-Directed Mutagenesis Kit from Stratagene (La Jolla, Calif.), as per manufacturer's instructions.

[2] = system: TNBS-induced inflammation; format: in vivo, rat; details: intact rat model, treatment through osmotic pumps, expected
Experimental: Muscle bath experiments. Pure circular muscle strips (2 mm×10 mm) are prepared from resected human colon segments. The strips are mounted in 5 ml baths filled with carbonated Krebs solution (in mM: 118 NaCl, 4.7 KCl, 2.5 CaCl2, 1 NaH2PO4, 1-2 MgCl2, 11 D-glucose, and 25 NaHCO3) at 37° C. (Siebenlist et al., 1994; Barnes and Karin, 1997). The muscle strips are equilibrated for 1 h at 1 g tension and then stretched until maximal response is obtained to 10^−4 m ACh. The bathing solution is replaced every 15 min. Contractions are measured by force transducers and analyzed by DATAQ (Akron, Ohio) software.
Vertebrate Animals. Sprague-Dawley rats were used. For tissue harvesting, the rats were anesthetized with 5% isoflurame in 100% oxygen for 5 to 7 minutes followed by i.p. injection of 50 mg/kg ketamine.
Osmotic pumps were implanted under anesthesia as discussed above. Lateral surface of left back were shaven and cleaned with betadine. A 2 cm incision was made in the skin and subcutaneous facia and muscle separated. The micro-osmotic pump were implanted intramuscularly and the incision was closed.
Colonic inflammation was induced by intraluminal injection of 30 mg/kg or 130-mg/kg trinitrobenzene sulfonic acid (TNBS) under anesthesia, as described above.

[3] = system: JNK/SAPK; test: MAP kinase phosphorylation: JNK/SAPK; format: cell-based
[4] = system: p65 subunit; test: Nuclear abundance and binding of NF-κB p65 in HCCSMC; format: cell-based, human
Experimental: Cytoplasmic and nuclear protein, and RNA extraction: Cytoplasmic and nuclear proteins were prepared as described earlier by Shi et al. Briefly, the cells were washed twice with phosphate-buffered saline solution and then with buffer A (in mM: 10 HEPES, 1.5 MgCl2, 10 KCl, 0.5 dithiothreitol, 0.5 phenylmethylsulfrenyl fluoride [PMSF]; 10 ng/mL leupeptin, and 10 ng/mL aprotinin). The cells were resuspended in 25 μL of buffer A containing 0.25% NP-40 and incubated at 4° C. for 10 minutes. After centrifugation at 12,000 g for 10 minutes, the supernatant was collected as cytoplasmic extract. The nuclear pellet was resuspended in 20 μL of buffer C (in mM: 20 HEPES, […], 1.5 MgCl2, 0.2 ethylenediaimetetraacetic acid (EDTA), 0.5 DTT, 0.5 PMSF; 24% glycerol, 10 ng/mL leupeptin, and 10 ng/mL aprotinin) and incubated on ice with frequent vortexing for 15 minutes. The samples were centrifuged at 14,000 g for 10 minutes, and the supernatant (nuclear extract) was transferred to a fresh tube with 5 volumes of buffer D (in mM: 20 HEPES, 0.2 EDTA, 50 KCl, 0.5 DTT, 0.5 PMSF; 20% glycerol, 10 ng/mL leupeptin, and 10 ng/mL aprotinin). The protein concentration was determined by using the Bio-Rad assay kit (Bio-Rad Laboratories, Hercules, Calif.).
Electrophoretic mobility shift assay. […]

vasoactive intestinal polypeptide [VIP]
α1C1b promoter reporter (luciferase) activity ([1]; substance by itself): enhanced in a concentration-dependent manner; also recorded: concentration-dependently increased; also recorded: enhanced promoter activity in normal cells
effect on suppression of α1C1b promoter activity by TNFα ([1]; with TNFα): significantly blocked this reduction; also recorded: partially blocked the suppression
effect on suppression of contractility due to TNBS-induced inflammation [2]: partially inhibit the suppression of contractility
phosphorylation of JNK/SAPK [3]: time-dependently dephosphorylated
abundance of p65 in the nucleus, VIP and TNFα versus TNFα alone [4]: did not seem to be different
